According to US20050244592A1, “Recording paper and image recording method” (FUJI XEROX CO., LTD., priority 2004, published 2005):

Assay: Solubility of the carboxylic acid in pure water
Conditions: maximum dissolution based on 100 g of pure water at 20° C.

Compound	Solubility
O=C(O)c1nc(C(=O)O)c(C(=O)O)c(C(=O)O)c1C(=O)O [Pyridine pentacarboxylic acid]	10 g/100 g
Furan carboxylic acid	7 g/100 g
